Measured values reported in ChEMBL document CHEMBL4400524, “Optimizing TRPM4 inhibitors in the MHFP6 chemical space” (Eur J Med Chem, 2019).
Calls of active or inactive are those of the source. The calls are words filed in the database; no cut-off is given here.

What was measured:
Type in all cases: cell-based
[1] = target: T1, Transient receptor potential cation channel subfamily M member 4 (Homo sapiens, UniProt Q8TD43); test: Inhibition of Flag-tagged TRPM4 (unknown origin) expressed in HEK293 cells assessed as reduction in intracellular Na+ influx after 45 mins by ANG2 dye-based fluorescence assay
[2] = target: T1, Transient receptor potential cation channel subfamily M member 4; test: Inhibition of Flag-tagged TRPM4 (unknown origin) expressed in HEK293 cells assessed as reduction in intracellular Na+ influx up to 100 uM after 45 mins by ANG2 dye-based fluorescence assay
[3] = target: T1, Transient receptor potential cation channel subfamily M member 4; test: Inhibition of Flag-tagged TRPM4 (unknown origin) expressed in HEK293 cells assessed as reduction in intracellular Na+ influx at 10 uM after 45 mins by ANG2 dye-based fluorescence assay relative to control

T1 sequence (Q8TD43 whole entry): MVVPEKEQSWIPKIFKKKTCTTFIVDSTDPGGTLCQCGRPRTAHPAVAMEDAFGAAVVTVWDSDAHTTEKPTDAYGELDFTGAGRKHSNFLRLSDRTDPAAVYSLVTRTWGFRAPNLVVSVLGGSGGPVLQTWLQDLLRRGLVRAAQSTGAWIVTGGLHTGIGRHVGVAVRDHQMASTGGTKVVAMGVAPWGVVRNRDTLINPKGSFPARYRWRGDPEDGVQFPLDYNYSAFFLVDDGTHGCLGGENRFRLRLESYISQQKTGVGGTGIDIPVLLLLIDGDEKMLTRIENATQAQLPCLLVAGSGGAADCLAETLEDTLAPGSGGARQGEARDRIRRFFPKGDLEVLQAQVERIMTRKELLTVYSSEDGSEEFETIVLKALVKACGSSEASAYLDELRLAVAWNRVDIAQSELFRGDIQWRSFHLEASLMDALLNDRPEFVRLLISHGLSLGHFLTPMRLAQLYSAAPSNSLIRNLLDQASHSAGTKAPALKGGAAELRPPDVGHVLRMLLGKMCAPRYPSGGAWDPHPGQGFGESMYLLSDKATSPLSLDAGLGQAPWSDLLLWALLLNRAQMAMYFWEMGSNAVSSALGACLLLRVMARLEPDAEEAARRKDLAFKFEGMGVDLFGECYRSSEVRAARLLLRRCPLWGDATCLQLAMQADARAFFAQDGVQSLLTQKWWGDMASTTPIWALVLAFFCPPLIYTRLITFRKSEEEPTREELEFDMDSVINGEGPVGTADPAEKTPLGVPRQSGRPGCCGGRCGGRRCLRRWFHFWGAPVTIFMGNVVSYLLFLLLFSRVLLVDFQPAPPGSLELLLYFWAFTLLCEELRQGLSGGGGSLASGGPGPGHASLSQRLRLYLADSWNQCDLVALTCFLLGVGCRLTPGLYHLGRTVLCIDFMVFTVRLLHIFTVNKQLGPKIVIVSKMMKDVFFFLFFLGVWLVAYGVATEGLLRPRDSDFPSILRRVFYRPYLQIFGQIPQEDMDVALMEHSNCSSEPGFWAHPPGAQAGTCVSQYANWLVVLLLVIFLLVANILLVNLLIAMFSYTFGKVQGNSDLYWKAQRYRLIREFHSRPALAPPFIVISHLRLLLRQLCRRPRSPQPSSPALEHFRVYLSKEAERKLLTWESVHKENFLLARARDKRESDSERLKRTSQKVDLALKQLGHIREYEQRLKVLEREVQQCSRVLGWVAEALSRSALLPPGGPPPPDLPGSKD

Compound | IC50 [1] [µM] | also measured
Cc1cccc(NC(=O)COc2ccccc2Cl)c1C(=O)O | 1.3 | –
N#Cc1ccc(C(=O)O)c(NC(=O)COc2ccccc2Cl)c1 | 3.6 | –
Cc1cc(Cl)ccc1OC(C)C(=O)Nc1cc(Cl)ccc1C(=O)O (centres undefined) | – | IC50 ([1]; hek293): 1.6 µM
Cc1noc(C)c1-c1ccc(C(=O)O)c(NC(=O)COc2ccccc2Cl)c1 | – | inhibition [2]: inactive
O=C(COc1ccccc1Cl)Nc1cc(Cl)ccc1C(=O)NS(=O)(=O)C1CC1 | 2.8 | –
O=C(COc1ccccc1Cl)Nc1cc(-c2ncco2)ccc1C(=O)O | 4.9 | –
O=C(COc1ccccc1Cl)Nc1cc(-c2nccs2)ccc1C(=O)O | 4.7 | –
O=C(COc1ccccc1Cl)Nc1cc(Cl)c(Cl)cc1C(=O)O | – | inhibition [3]: 30%
O=C(COc1ccccc1Cl)Nc1cc(-c2ccsc2)ccc1C(=O)O | 5.9 | –
